Assay results as given in US20220143198A1, “COMPOSITIONS AND METHODS RELATED TO TETHERED KETHOXAL DERIVATIVES” (The University of Chicago, priority 2019, published 2022).

Tests used:
[1] = tested on: 12-mer synthetic RNA oligo containing four guanine bases; assay: Labeling activity of phenol-kethoxal and diphenol-kethoxal on 12-mer synthetic RNA oligo (MALDI-TOF); format: biochemical; settings: 10 min incubation
Procedure: To test the labeling activity of phenol-kethoxal and diphenol-kethoxal, the two compounds were incubated with a 12-mer synthetic RNA oligo containing four guanine bases, respectively. After 10 min, the reactions were cleaned-up and analyzed by MALDI-TOF.

Cells = assay: Cell permeability and radical-mediated biotinylation of RNA from treated cells (dot blot); format: cell-based; settings: cells treated 10 min, versus control sample
Procedure: A second set of test were performed to test cell permeability of phenol-kethoxal and diphenol-kethoxal and if the labeling enhances radical-mediated biotinylation. Cells were treated with phenol-kethoxal and diphenol-kethoxal for 10 min, respectively, and RNA isolated from treated cells. An in vitro biotinylation reaction was performed by mixing these kethoxal derivative-labeled RNAs with biotin-phenol, horseradish peroxidase (HRP), and H2O2, see FIG. 4. HRP is an enzyme that mimics APEX with higher radical generation activity in vitro. The biotinylated RNAs were purified and subjected to dot blot analysis.

guanosine = assay: Reversibility of kethoxal derivatives by adjusting pH (kethoxal-guanosine adduct dissociation); format: physicochemical
[2] = pH = 5.8, 4 h after adjusting from pH 10.1, 1:1 ratio
[3] = pH = 5.8, 24 h after adjusting from pH 10.1, 1:1 ratio
[4] = pH = 10.1, 10 min, kethoxal derivative and guanosine 1:1
[5] = pH = 5.8, 10 min after adjusting from pH 10.1, 1:1 ratio

`CC(OCCn1cc(-c2ccc(O)c(O)c2)nn1)C(=O)C=O` (stereo not drawn) [diphenol-kethoxal] was tested, and the “Labeling activity on RNA oligo” value [1] was “label the oligo efficiently, with all four guanines on all oligo molecules modified” and the “Biotin signal of RNA from treated cells after HRP/biotin-phenol/H2O2 biotinylation” value (Cells) was “stronger biotin signals compared with the control sample”.

`[N-]=[N+]=NCCCC(=O)C=O` [drawing 70] showed a Conversion of guanosine (guanosine; [2]) of 19.0%, a Conversion of guanosine (guanosine; [3]) of 14.7% and a Conversion of guanosine (guanosine; [4]) of 30.2%.

`CC(C(=O)C=O)N(C)C(=O)CN=[N+]=[N-]` (stereo not drawn) [drawing 71] was tested, and the Conversion of guanosine (guanosine; [2]) was 31.9%, the Conversion of guanosine (guanosine; [3]) was 26.5% and the Conversion of guanosine (guanosine; [4]) was 35.6%.

`[N-]=[N+]=NCCOCCC(=O)C=O` [drawing 72] gave a Conversion of guanosine (guanosine; [2]) of 16.6% and a Conversion of guanosine (guanosine; [4]) of 19.7%.

Work on `O=CC(=O)c1ccccc1` [drawing 73] yielded a Conversion of guanosine (guanosine; [5]) of 12.2%, a Conversion of guanosine (guanosine; [2]) of 10.7% and a Conversion of guanosine (guanosine; [3]) of 12.7%. For the same compound, the Conversion of guanosine (guanosine; [4]) was 28.3%.

For `[N-]=[N+]=NCCOC(F)C(=O)C=O` (stereo not drawn) [drawing 74], the Conversion of guanosine (guanosine; [5]) was 50.1%, the Conversion of guanosine (guanosine; [2]) was 57.1% and the Conversion of guanosine (guanosine; [3]) was 58.2%. It also gave a Conversion of guanosine (guanosine; [4]) of 46.2%.

`[N-]=[N+]=NCCOC(F)(F)C(=O)C=O` [drawing 75] showed a Conversion of guanosine (guanosine; [5]) of 49.2%, a Conversion of guanosine (guanosine; [2]) of 55.1% and a Conversion of guanosine (guanosine; [3]) of 54.7%. The Conversion of guanosine (guanosine; [4]) was 41.5%.

For `CC(OCCn1cc(-c2ccc(O)cc2)nn1)C(=O)C=O` (stereo not drawn) [phenol-kethoxal], the “Labeling activity on RNA oligo” value [1] was “label the oligo efficiently, with all four guanines on all oligo molecules modified” and the “Biotin signal of RNA from treated cells after HRP/biotin-phenol/H2O2 biotinylation” value (Cells) was “stronger biotin signals compared with the control sample”.
